# Measurements as given in publication PMC11796317, “Fragment Discovery by X‐Ray Crystallographic Screening Targeting the CTP Binding Site of Pseudomonas Aeruginosa IspD” (Angewandte Chemie (International Ed. in English), 2025).
# T1: PaIspD (Pseudomonas aeruginosa, UniProt P57707)
# T1 construct: His6 (N, cleaved yes); made in house; host or cells: Escherichia coli BL21 (DE3), pET28
# T1 sequence (P57707 1-234): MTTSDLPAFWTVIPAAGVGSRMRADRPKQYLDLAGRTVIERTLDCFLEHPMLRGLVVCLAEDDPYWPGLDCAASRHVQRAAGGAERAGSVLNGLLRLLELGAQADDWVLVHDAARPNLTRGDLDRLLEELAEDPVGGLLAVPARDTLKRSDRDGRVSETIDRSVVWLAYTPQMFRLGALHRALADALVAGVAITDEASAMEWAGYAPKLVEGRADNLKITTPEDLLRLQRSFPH
# B1: PaIspD (Pseudomonas aeruginosa PAO1) (protein)
# chain: MTTSDLPAFWTVIPAAGVGSRMRADRPKQYLDLAGRTVIERTLDCFLEHPMLRGLVVCLAEDDPYWPGLDCAASRHVQRAAGGAERAGSVLNGLLRLLELGAQADDWVLVHDAARPNLTRGDLDRLLEELAEDPVGGLLAVPARDTLKRSDRDGRVSETIDRSVVWLAYTPQMFRLGALHRALADALVAGVAITDEASAMEWAGYAPKLVEGRADNLKITTPEDLLRLQRSFPH
# notes: His6 (N, cleaved yes); made in house; host or cells: Escherichia coli BL21 (DE3), pET28
# Experiments:
# PaIspD [1] = molecular target: T1, PaIspD; assay: Determination of enzyme kinetics (Michaelis constants of substrates, LC-MS); assay type: biochemical; settings: substrate of PaIspD; 50 nM PaIspD, 37 °C, 40 minutes
# Description: (§1) Determination of enzyme kinetics
# (§2) Table S1. Michaelis constants for MEP and CTP of PaIspD.
# (§3) Substrate Km (mM) Vmax (AU/min-1)
# (§4) Determination of enzyme kinetics. The assay was conducted as published before. To determine the Km values for CTP and MEP with PaIspD, substrate concentrations (0.016–2 mM) were prepared in a 96-well plate. Each well contained 100 μL of reaction mix with Buffer A (100 mM Tris-HCl pH 7.6, 1 mM DTT, 1 mM MgCl2) and 50 nM PaIspD. Serial dilutions of CTP or MEP were performed, and reactions were initiated by adding Buffer B (100 mM Tris-HCl pH 7.6, 1 mM DTT, 1 mM MEP or CTP). Plates were incubated at 37 °C for 40 minutes, denatured at 95 °C for 5 minutes, and centrifuged at 4000 rpm at 4 °C. Supernatants (10 μL) were mixed with an 190 μL ice-cold 3:1:1 ACN, isopropanol, water mixture containing 100 nM 4-methyl-1-oxo-1-(p-tolylamino)pentane-2-sulfonic acid, adenylyl-imidodiphosphate and adenosine-5′- [(α,β)-methyleno]triphosphate as internal standard. After centrifugation at 4000 rpm at 4 °C for 5 min, a 50 μL aliquot was transferred to an LC-MS plate for analysis. Peak areas were used to calculate Michaelis–Menten kinetics using GraphPad Prism v9. Measurements were done in duplicates and repeated in two independent experiments.
# Figure S1: Kinetic parameters of PaIspD substrates (MEP, left and CTP, right). Each data point reflects the mean ± SD obtained from two-independent […]
# PaIspD [2] = molecular target: T1, PaIspD; assay: 1H-STD NMR and competition STD NMR with CTP; assay type: binding
# From the text: To further validate the occurrence of interactions taking place between the fragment and PaIspD, we referred to ^1H‐STD NMR spectroscopy, a commonly used technique for this purpose.[10, 11] We conducted this experiment in a HEPES buffer in D2O with a 100‐fold excess of 2 compared to PaIspD. In the corresponding difference spectrum, we identified all proton signals previously observed in the ^1H NMR spectrum of 2 (see Figure S2 and S3 in the Supporting Information). […] We further noted the magnitude of amplification of the signals as the efficiency of saturation transfer scales with distance, enabling us to gain an idea about the proximity of each proton to the protein surface.[12] Among all protons, those in position iii (Figure 4) clearly received a surplus in saturation transfer relative to the other ones, whereas the protons positioned on the pyridyl ring (i, Figure 4) and the protons in position ii (Figure 4) received both less amplification with the latter receiving the least amount (Figure 4). […]
# The 1H-STD-NMR experiment was recorded at 25 °C with 512 scans on a Bruker Avance Neo 500 MHz spectrometer with prodigy cryoprobe system. […]
# PaIspD [3] = molecular target: T1, PaIspD; assay: Fluorescence quenching (PaIspD); assay type: binding
# Description: Fluorescence quenching (PaIspD)
# Quenching is expressed as (I0 – I) / I0 with I0 the intensity (at 332 nm) of fluorescence in absence of compound and I the intensity of fluorescence upon addition of compound. Inset, fluorescence emission spectra in the presence of increasing concentrations of compound. The concentration of PaIspD was kept at 2 µM during the assay, the compounds were tested in concentration ranges given below. The excitation wavelength was set at 286 nm, emission spectra were recorded between 300 nm and 380 nm. The data were fitted using Qtiplot software (qtiplot.com). A least square fit to a simple bimolecular equilibrium was used to estimate the Kd values. Each measurement was reproduced two times. The measurements were carried out in the following buffer: 50 mM Tris-Cl pH = 8, 50 mM NaCl, 1mM MgCl2.
# Table S1. Concentration ranges used to determine Kd during the Fluorescence quenching assay.
# PaIspD [4] = molecular target: T1, PaIspD; assay: Microscale thermophoresis (MST) with dyed PaIspD; assay type: binding
# Description: The microscale thermophoresis (MST) (Serial no. 201709-BR-N024, Monolith NT.115 Micro Scale Thermophoresis, NanoTemper Technologies GmbH.) was performed using dyed PaIspD, labeled according to the standard protocol from the manufacturer NanoTemper Technologies GmbH Protein Labeling Kit Red-NHS, 2nd Generation. A 2 mM ligand solution containing 10% DMSO was prepared (Solution I). A 200 µl solution of 10% DMSO containing buffer solution was prepared (Solution II). The buffer used was HEPES (50 mM), MgCl2 (5 mM) and Tween (0.05%) at pH 7.6 for all compounds. To PCR tubes 2-16, 10 µl of solution II was added. To tube 1, 20 µl of solution I was added. 10 µl from tube 1 was add to tube 2 and mixed. This was continued until tube 16. To each tube, 10 µL of the protein dye mixture was added and mixed. The mixture was allowed to incubate at room temperature for 5 minutes. Non-hydrophobic capillary tubes were used for measurement. Each sample was measured and analyzed in MO Control version 1.6.
# [5] = substrate: C[C@](O)(CO)[C@H](O)COP(=O)(O)O; assay: Determination of enzyme kinetics (Michaelis constants of substrates, LC-MS); assay type: biochemical, Pseudomonas aeruginosa; settings: other: substrate of PaIspD, 50 nM PaIspD, 37 °C, 40 minutes, pH 7.6
# Description: as §1, §2, §3, §4
# Figure S1: Kinetic parameters of PaIspD substrates (MEP, left and CTP, right). […]
# [6] = -log KD, supplement sheet, CORRECTED VALUES
# [7] = -log KD, supplement sheet, PUBLISHED VALUES
# [8] = kd (M), supplement sheet, CORRECTED VALUES
# [9] = kd (µM), supplement sheet, CORRECTED VALUES, MST Kd
# [10] = supplement sheet, CORRECTED VALUES
# [11] = supplement sheet, PUBLISHED VALUES
# [12] = MST Kd, n=2, mean±SD, HEPES 50 mM, MgCl2 5 mM, Tween 0.05%, pH 7.6
Molecule,Km (PaIspD [1]),Vmax (PaIspD [1]),"Competition STD NMR with CTP (PaIspD [2]; 1 mM 2, 10 mM CTP, 10 µM PaIspD)","1H-STD NMR interaction with PaIspD (PaIspD [2]; HEPES buffer in D2O, 100-fold excess of 2 compared to PaIspD)",Kd (PaIspD [3]),Kd (PaIspD [4]; [6]),Kd (PaIspD [4]; [7]),Kd (PaIspD [4]; [8]),Kd (PaIspD [4]; [9]),LE (PaIspD [4]; [10]),LLE (PaIspD [4]; [11]),Kd (PaIspD [4]; [12]),Km [5]
Nc1ccn([C@@H]2O[C@H](COP(=O)(O)OP(=O)(O)OP(=O)(O)O)[C@@H](O)[C@H]2O)c(=O)n1 [CTP],200 ± 100 µM,0.30 ± 0.01 AU/min-1,,,,,,,,,,,
CN1Cc2cccnc2C1=O [Compound 2],,,STD signals of 2 disappeared,came into close proximity of the protein,977 ± 59 µM,0.000939 M,0.000939 M,0.000939 M,0.000939 M,0.377,-1.358,,
CN1CCC(N2Cc3cccnc3C2=O)CC1 [Compound 3],,,,,879 ± 64 µM,0.000186 M,0.000186 M,0.000186 M,0.000186 M,0.3006,-0.7773,0.000186 ± 7e-06 M,
O=C1c2ncccc2CN1Cc1ccccc1 [Compound 4],,,,,391 ± 35 µM,0.000133 M,0.000133 M,0.000133 M,0.000133 M,0.3124,-0.9699,0.000133 ± 1.2e-05 M,
O=C1c2ncccc2CN1CCN1CCOCC1 [Compound 5],,,,,,0.000491 M,0.000491 M,0.000491 M,0.000491 M,0.2518,-0.7374,0.000491 ± 2e-06 M,
O=C1c2ncccc2CN1CCc1c[nH]c2ccccc12 [Compound 6],,,,,332 ± 22 µM,0.000208 M,0.000208 M,0.000208 M,0.000208 M,0.2402,-0.7939,0.000208 ± 7e-06 M,
COC(=O)N(C)C1c2cccnc2C(=O)N1C (centres unmarked) [Compound 7],,,,,,0.000454 M,0.000454 M,0.000454 M,0.000454 M,0.2694,-0.728,0.000454 ± 2.7e-05 M,
CCC(=O)N(C)C1c2cccnc2C(=O)N1C (centres unmarked) [Compound 8],,,,,248 ± 15 µM,,,,,,,,
CCC(CC)C(=O)N(C)C1c2cccnc2C(=O)N1C (centres unmarked) [Compound 9],,,,,,0.000536 M,0.000536 M,0.000536 M,0.000536 M,0.2241,-0.9347,0.000536 ± 4.7e-05 M,
CN(C(=O)c1ccncc1)C1c2cccnc2C(=O)N1C (centres unmarked) [Compound 10],,,,,310 ± 28 µM,0.000209 M,0.000209 M,0.000209 M,0.000209 M,0.2401,-0.6357,0.000209 ± 4e-06 M,
CN(C(=O)c1ccon1)C1c2cccnc2C(=O)N1C (centres unmarked) [Compound 11],,,,,301 ± 16 µM,0.000502 M,0.000502 M,0.000502 M,0.000502 M,0.226,-0.6167,0.000502 ± 5.6e-05 M,
CN1C(=O)c2ncccc2C1N(C)C(=O)N1CCOCC1 (centres unmarked) [Compound 12],,,,,371 ± 42 µM,0.000239 M,0.000239 M,0.000239 M,0.000239 M,0.2363,-0.5431,0.000239 ± 6e-06 M,
"C[C@](O)(CO)[C@H](O)COP(=O)(O)O [MEP, 2‐C‐methylerythritol‐D‐erythritol‐4‐phosphate]",,0.30 ± 0.0 AU/min-1,,,,,,,,,,,
B1,,,,,,,,,,,,,210 ± 100 µM
